This note sets out measurements from patent US8415486B2, “IAP inhibitors” (TetraLogic Pharmaceuticals Corp., priority 2009, dated 2013).

pKd: −log10 of the molar value.

Test [1] relates to ovarian cancer cell line, SK-OV-3. Nature of the test: SK-OV-3 cell growth inhibition (MTT, 72 hrs). It counts as cell-based. To be noted: Homo sapiens, concentration giving 50% cell survival, reported as ranges. On the procedure: Compounds of the invention also were tested for their ability to inhibit the growth of an ovarian cancer cell line, SK-OV-3. A known assay previously used for measuring cell growth (as described in Hansen, M. B., Nielsen, S. E., and Berg, K. (1989) J. Immunol. Methods 119, 203-210 and incorporated herein by reference in its entirety) was used. Briefly, SK-OV-3 cells are seeded in 96-well plates in McCoy's medium containing 10% fetal bovine serum albumin (5,000 per well) and incubated overnight at 37° C. The next day, test compounds are added at various concentrations (0.003-10 μM) and the plates are incubated at 37° C. for an additional 72 hrs. This incubation time was considered to be optimal for measuring inhibitory effects of the different compounds tested. 50 microliters of 5 mg/mL MTT reagent is added to each well and the plates are incubated at 37° C. for another three (3) hours. At the end of the three (3) hour incubation period, 50 microliters of DMSO is added to each well to dissolve cells and the optical density (OD) of the wells is measured with a microplate reader (Victor^2 1420, Wallac, Finland) at 535 nm. Cell survival (CS) was calculated using the following equation: CS=(OD treated well/mean OD control wells)×100%.
The CC50 (reported in the following tables), is defined as the drug concentration that results in 50% cell survival (CS), and is derived by calculating the point where the dose-response curve crosses the 50% CS point using GraphPad Prism. The reported CC50 values are supplied as ranges (A=<0.1 μM, B=0.1 μM to 1 μM, C=>1 μM to 10 μM, D=>10 μM).

Another test addresses T1, cIAP-1 BIR-3 (Homo sapiens, UniProt Q13490).
T1 construct: 40 nM of the respective IAP BIR3
Nature of the test: Fluorescence polarization binding to cIAP-1 BIR-3 with labeled peptide AbuRPF-K(5-Fam)-NH2. To be noted: 40 nM BIR3, 5 nM labeled peptide, reported as ranges, read-out: KD (c-IAP-1 BIR3). On the procedure:
(§1) The binding affinities of the compounds are reported as a KD value (μM). Briefly, various concentrations of test peptides were mixed with 5 nM of the fluorescently labeled peptide (i.e., a mutated N-terminal Smac peptide—AbuRPF-K(5-Fam)-NH2) and 40 nM of the respective IAP BIR3 for 15 min at RT in […] of 0.1M Potassium Phosphate buffer, pH 7.5 containing 100 mg/ml bovine g-globulin. Following incubation, the polarization values (mP) were measured on a Victor2V (available from PerkinElmer Life Sciences) using a 485 nm excitation filter and a 520 nm emission filter. The reported binding affinities (KD values) are supplied as ranges (A=<0.1 μM, B=0.1 μM to 1 μM, C=>1 μM to 10 μM, D=>10 μM).

A further test concerns the target T2, XIAP BIR-3 (Homo sapiens, UniProt P98170).
T2 construct: 40 nM of the respective IAP BIR3
The test is described as follows: Fluorescence polarization binding to XIAP BIR-3 with labeled peptide AbuRPF-K(5-Fam)-NH2. The note with it: 40 nM BIR3, 5 nM labeled peptide, reported as ranges. The protocol:
as §1

T2 sequence (P98170 241-356 limits assumed): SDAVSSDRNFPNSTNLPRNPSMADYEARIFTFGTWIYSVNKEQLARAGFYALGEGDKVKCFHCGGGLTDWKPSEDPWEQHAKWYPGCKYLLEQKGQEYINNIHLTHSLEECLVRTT
T1 sequence (Q13490 253-363 limits assumed): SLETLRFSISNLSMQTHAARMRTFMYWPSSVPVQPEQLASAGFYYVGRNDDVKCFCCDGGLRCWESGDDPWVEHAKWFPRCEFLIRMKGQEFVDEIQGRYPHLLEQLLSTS

As for `CN[C@@H](C)C(=O)N[C@H](C(=O)N1CC[C@@H]2[C@H]1[C@@H](Oc1ccc(F)c(F)c1)CN2C(=O)NC(C)C)C(C)(C)C` [Example 24, 3-(3,4-Difluoro-phenoxy)-4-[3,3-dimethyl-2-(2-methylamino-propionylamino)-butyryl]-hexahydro-pyrrolo[3,2-b]pyrrole-1-carboxylic acid isopropylamide], the CC50 in test [1] is less than 100 nM. Besides, the pKd on cIAP-1 BIR-3 and at XIAP BIR-3 was more than 7.00 throughout.
In turn, `CCNC(=O)O[C@H]1CN(C(=O)NC(C)C)[C@@H]2CCN(C(=O)[C@@H](NC(=O)[C@H](C)NC)C(C)(C)C)[C@H]12` [Example 52, Ethyl-carbamic acid 4-[3,3-dimethyl-2-(2-methylamino-propionylamino)-butyryl]-1-isopropylcarbamoyl-octahydro-pyrrolo[3,2-b]pyrrol-3-yl ester] displayed a CC50 in test [1] of 1000 to 10000 nM. Besides, the figures for the pKd at cIAP-1 BIR-3 and on XIAP BIR-3 were more than 7.00 and 5.00 to 6.00, respectively.
The corresponding values for `CN[C@@H](C)C(=O)N[C@H](C(=O)N1CC[C@@H]2[C@H]1[C@@H](OCc1ccc(F)cc1)CN2C(=O)N(C)C)C(C)(C)C` [Example 41, (3S,3aS,6aR)-4-((S)-3,3-dimethyl-2((S)-2-(methylamino)propanamido)butanoyl)-3-(4-fluorobenzyloxy)-N,N-dimethylhexahydropyrrolo[3,2-b]pyrrole-1(2H)-carboxamide] are less than 100 nM, more than 7.00 and more than 7.00.
The like results for `CN[C@@H](C)C(=O)N[C@H](C(=O)N1CC[C@@H]2[C@H]1[C@@H](Oc1ccc(F)c(F)c1)CN2C(=O)CC(C)C)C(C)(C)C` [Example 22, N-{1-[6-(3,4-Difluoro-phenoxy)-4-(3-methyl-butyryl)-hexahydro-pyrrolo[3,2-b]pyrrole-1-carbonyl]-2,2-dimethyl-propyl}-2-methylamino-propionamide] were, in that order, less than 100 nM, more than 7.00 and more than 7.00.
For the compound `CN[C@@H](C)C(=O)N[C@H](C(=O)N1CC[C@@H]2[C@H]1[C@@H](COc1ccc(F)c(F)c1)CN2C(=O)CC(C)C)C(C)(C)C` [Example 71, N-{1-[6-(3,4-Difluoro-phenoxymethyl)-4-(3-methyl-butyryl)-hexahydro-pyrrolo[3,2-b]pyrrole-1-carbonyl]-2,2-dimethyl-propyl}-2-methylamino propionamide], the CC50 in test [1] was less than 100 nM. Besides, the pKd at cIAP-1 BIR-3 and at XIAP BIR-3 was more than 7.00 in each case.
Compound `CN[C@@H](C)C(=O)N[C@H](C(=O)N1CC[C@H]2NC[C@H](OCc3ccc(F)cc3)[C@H]21)C(C)(C)C` [Example 35, N-{1-[6-(4-Fluoro-benzyloxy)-hexahydro-pyrrolo[3,2-b]pyrrole-1-carbonyl]-2,2-dimethyl-propyl}-2-methylamino-propionamide ester] gave a CC50 in test [1] of less than 100 nM. Also, the figures for the pKd at cIAP-1 BIR-3 and at XIAP BIR-3 were more than 7.00 and 6.00 to 7.00, respectively.
The corresponding values for `CN[C@@H](C)C(=O)N[C@H](C(=O)N1CC[C@@H]2[C@H]1[C@@H](OC(=O)NC(C)C)CN2C(=O)NC(C)C)C(C)(C)C` [Example 54, Isopropyl-carbamic acid 4-[3,3-dimethyl-2-(2-methylamino-propionylamino)-butyryl]-1-isopropylcarbamoyl-octahydro-pyrrolo[3,2-b]pyrrol-3-yl ester] are 1000 to 10000 nM, more than 7.00 and 5.00 to 6.00.
The like results for `CN[C@@H](C)C(=O)N[C@H](C(=O)N1CC[C@@H]2[C@H]1[C@@H](Oc1ccc(F)c(F)c1)CN2S(C)(=O)=O)C(C)(C)C` [Example 19, N-{1-[6-(3,4-Difluoro-phenoxy)-4-methanesulfonyl-hexahydro-pyrrolo[3,2-b]pyrrole-1-carbonyl]-2,2-dimethyl-propyl}-2-methylamino-propionamide] were, in that order, less than 100 nM, more than 7.00 and more than 7.00.
The like results for `CN[C@@H](C)C(=O)N[C@H](C(=O)N1CC[C@@H]2[C@H]1[C@@H](Oc1ccc(F)cc1)CN2S(C)(=O)=O)C1CCCCC1` [Example 10, N-{1-Cyclohexyl-2-[6-(4-fluoro-phenoxy)-4-methanesulfonyl-hexahydro-pyrrolo[3,2-b]pyrrol-1-yl]-2-oxo-ethyl}-2-methylamino-propionamide] were, in that order, less than 100 nM, more than 7.00 and more than 7.00.
Compound `CN[C@@H](C)C(=O)N[C@H](C(=O)N1CC[C@@H]2[C@H]1[C@@H](Oc1ccc(F)c(F)c1)CN2C(=O)N(C)C)C(C)(C)C` [Example 25, 3-(3,4-Difluoro-phenoxy)-4-[3,3-dimethyl-2-(2-methylamino-propionylamino)-butyryl]-hexahydro-pyrrolo[3,2-b]pyrrole-1-carboxylic acid dimethylamide] showed a CC50 in test [1] of less than 100 nM. Also, the pKd at cIAP-1 BIR-3 and on XIAP BIR-3 was more than 7.00 in each case.
As to `CN[C@@H](C)C(=O)N[C@H](C(=O)N1CC[C@@H]2[C@H]1[C@@H](Oc1ccc(F)c(F)c1)CN2C1CCOCC1)C(C)(C)C` [Example 15, N-{1-[6-(3,4-Difluoro-phenoxy)-4-(tetrahydro-pyran-4-yl)-hexahydro-pyrrolo[3,2-b]pyrrole-1-carbonyl]-2,2-dimethyl-propyl}-2-methylamino-propionamide], the CC50 in test [1] was less than 100 nM. Moreover, the pKd on cIAP-1 BIR-3 was more than 7.00; at XIAP BIR-3, 6.00 to 7.00.
The compound `CN[C@@H](C)C(=O)N[C@H](C(=O)N1CC[C@@H]2[C@H]1[C@@H](OC(=O)NC(C)(C)C)CN2C(=O)NC(C)C)C(C)(C)C` [Example 55, tert-Butyl-carbamic acid 4-[3,3-dimethyl-2-(2-methylamino-propionylamino)-butyryl]-1-isopropylcarbamoyl-octahydro-pyrrolo[3,2-b]pyrrol-3-yl ester] registered a CC50 in test [1] of 100 to 1000 nM. Moreover, the pKd on cIAP-1 BIR-3 was more than 7.00; at XIAP BIR-3 it was 5.00 to 6.00.
Consider `CN[C@@H](C)C(=O)N[C@H](C(=O)N1CC[C@H]2NC[C@H](COc3ccc(F)c(F)c3)[C@H]21)C(C)(C)C` [Example 64, N-{1-[6-(3,4-Difluoro-phenoxymethyl)-hexahydro-pyrrolo[3,2-b]pyrrole-1-carbonyl]-2,2-dimethyl-propyl}-2-methylamino propionamide], for which the CC50 in test [1] was less than 100 nM. For the same compound, the pKd on cIAP-1 BIR-3 and on XIAP BIR-3 was more than 7.00 each time.
As for `CNC(=O)N1C[C@H](OCc2ccc(F)cc2)[C@@H]2[C@H]1CCN2C(=O)[C@@H](NC(=O)[C@H](C)NC)C(C)(C)C` [Example 36, 4-[3,3-Dimethyl-2-(2-methylamino-propionylamino)-butyryl]-3-(4-fluoro-benzyloxy)-hexahydro-pyrrolo[3,2-b]pyrrole-1-carboxylic acid methylamide], the CC50 in test [1] was less than 100 nM. Further, the pKd at cIAP-1 BIR-3 is more than 7.00; at XIAP BIR-3, 6.00 to 7.00.
The like results for `CN[C@@H](C)C(=O)N[C@H](C(=O)N1CC[C@@H]2[C@H]1[C@@H](COc1ccc(F)c(F)c1)CN2C(C)=O)C(C)(C)C` [Example 65, N-{1-[4-Acetyl-6-(3,4-difluoro-phenoxymethyl)-hexahydro-pyrrolo[3,2-b]pyrrole-1-carbonyl]-2,2-dimethyl-propyl}-2-methylamino propionamide] were, in that order, less than 100 nM, more than 7.00 and more than 7.00.
Regarding `CN[C@@H](C)C(=O)N[C@H](C(=O)N1CC[C@@H]2[C@H]1[C@@H](OC(=O)Nc1cccc3ccccc13)CN2C(=O)NC(C)C)C(C)(C)C` [Example 49, Naphthalen-1-yl-carbamic acid 4-[3,3-dimethyl-2-(2-methylamino-propionylamino)-butyryl]-1-isopropylcarbamoyl-octahydro-pyrrolo[3,2-b]pyrrol-3-yl ester], the CC50 in test [1] was less than 100 nM. The values for the pKd on cIAP-1 BIR-3 and on XIAP BIR-3 were more than 7.00 and 6.00 to 7.00, respectively.
